Data taken from patent US20230399296A1, “RNA VIRUS INHIBITOR COMPOUNDS WITH IMPROVED METABOLIC STABILITY AND USES THEREOF” (priority 2022, published 2023).

Columns and labels:
[1] = Microsomal stability, mouse liver microsomes; type: in vitro ADME
Procedure: (§1) Experiments were performed to assess the stability of the compounds in the presence of mouse and human liver microsomes. The experimental procedures there were used are described below. Examples of the percent remaining of the compound curves in the presence of human microsomes are shown in FIGS. 2A to 2F, and examples of the determined half-life are provided in TABLE 3.
(§2) Intermediate solution: 5 μL of compound and control stock solution (10 mM in dimethyl sulfoxide (DMSO)) were diluted with 495 μL of acetonitrile (ACN) (intermediate solution concentration: 100 μM, 99% ACN).
(§3) Working solution: 50 μL of compound and control intermediate solution (100 μM) were diluted with 450 μL of 100 mM potassium phosphate buffer (working solution concentration: 10 μM, 9.9% ACN).
(§4) The appropriate amount of NADPH powder was weighed and diluted into a 10 mM MgCl2 solution (working solution concentration: 10 unit/mL; final concentration in reaction system: 1 unit/mL).
(§5) The appropriate concentrations of microsome working solutions were prepared in 100 mM potassium phosphate buffer.
(§6) Cold (4° C.) acetonitrile (ACN) containing 200 ng/mL tolbutamide and 200 ng/mL labetalol as internal standards (IS) was used as the stop solution.
(§7) Using an Apricot automation workstation, 10 μL/well of compound working solution were added to all 96-well reaction plates except the blank (T0, T5, T10, T20, T30, T60, and NCF60). An Apricot automation workstation was used to add 80 μL/well of microsome solution to all reaction plates (Blank, T0, T5, T10, T20, T30, T60, and NCF60). All reaction plates containing mixtures of compound and microsomes were pre-incubated at 37° C. for 10 minutes. An Apricot automation workstation was used to add 10 μL/well of 100 mM potassium phosphate buffer to reaction plate NCF60. Reaction plate NCF60 was incubated at 37° C., and timer 1 was started. After pre-incubation, an Apricot automation workstation was used to add 10 μL/well of NADPH regenerating system to every reaction plate except NCF60 (Blank, T0, T5, T10, T20, T30, and T60) to start the reaction. The reaction plates were incubated at 37° C., and timer 2 was started. An Apricot automation workstation was used to add 300 μL/well of stop solution to each reaction plate at its appropriate end time point to terminate the reaction. Each plate was sealed and shaken for 10 minutes. After shaking, each plate was centrifuged at 4000 rpm and 4° C. for 20 minutes. During centrifugation, an Apricot automation workstation was used to add 300 μL/well of HPLC grade water to eight new 96-well plates. After centrifugation, an Apricot automation workstation was used to transfer 100 μL of supernatant from each reaction plate to its corresponding bioanaylsis plate. Each bioanalysis plate was sealed and shaken for 10 minutes prior to LC-MS/MS analysis.
(§8) The equation of first order kinetics was used to calculate T½: […]

[2] = Microsomal stability, human liver microsomes; type: in vitro ADME
Procedure: as §1, §2, §3, §4, §5, §6, §7, §8

[3] = test system: SARS-CoV-2; assay: SARS-CoV-2 plaque reduction assay in Vero E6 cells; type: cell-based; conditions: Severe acute respiratory syndrome coronavirus 2, Vero C1008, 48 h, read-out: SARS-CoV-2 Antiviral EC50
[4] = target: SARS-CoV-2 3CLP (Severe acute respiratory syndrome coronavirus 2 (2019-nCoV) (SARS-CoV-2), UniProt P0DTD1); assay: SARS-CoV-2 3CLP FRET inhibition assay; type: biochemical; conditions: 80 nM SARS-CoV-2 3CLP, 100 μM FRET substrate, pH 7.8, 37° C.; read-out: 3CL Protease IC50
Source text: Compounds described herein were screened for SARS-CoV-2 3CLP inhibition using a Fluorescence resonance energy transfer (FRET) assay at different compound concentrations. Examples of the resulting concentration response curves are shown in FIGS. 1A and 1B, and examples of the determined 50 percent inhibition concentration (IC50) are provided in TABLE 1.
A synthesized fluorescent substrate containing the cleavage site (indicated by the arrow, ↓) of SARS-CoV-2 3CLP (2-Abz-SVTLQ↓SG-Tyr(NO2)—R—NH2) was used for the fluorescence resonance energy transfer (FRET)-based cleavage assay. The protease reaction of SARS-CoV-2 3CLP towards fluorescent substrate was performed in activity buffer (20 mM Bis Tris, pH 7.8, 1 mM DTT) at 37° C. for 10 min. The final concentration of protease used in the assay was fixed at 80 nM and the concentrations of the substrate were varied from 0.1 to 500 μM. Reaction was started with the enzyme and the fluorescence signal of the Abz-SVTLQ peptide cleavage product was monitored at an emission wavelength of 420 nm with excitation at 320 nm, using an Flx800 fluorescence spectrophotometer (BioTek). Before kinetic calculations, it was verified that the proportionality between the fluorescence emitted and the amount of the substrate used in the assay was linear. The minimal concentration of the enzyme and time of reaction that gave a linear dependence of amount of generated product with time was chosen. Initial velocities in corresponding relative fluorescence units per unit of time (ARFU/s) were converted to the amount of the cleaved substrate per unit of time (M/s) by fitting to the calibration curve of free Aminobenzoyl-SVTLQ. All data are corrected for inner filter effects by an adopted literature protocol. In short, the fluorescence signal (RFU) at each substrate concentration was determined and defined as f(FRET). Then, 5 μL free Aminobenzoyl-SVTLQ at final 5 μM was added to each concentration and fluorescence was taken f(FRET+Aminobenzoyl-SVTLQ). Simultaneously, a reference reading was taken with the same free Aminobenzoyl-SVTLQ concentration and defined as f(ref). The inner-filter correction was obtained as:
Stock solutions of the compounds were prepared with DMSO. For the determination of the IC50, 80 nM of SARS-CoV-2 3CLP was incubated with the compounds at various concentrations from 0 to 100 μM in 20 mM Bis-Tris, pH 7.8, 1 mM DTT at 37° C. for 10 min. The protease reaction was started by addition of 100 μM of the substrate. The GraphPad Prism 6.0 software (GraphPad) was used for the calculation of the IC50 values.

[5] = in vitro; type: cell-based; conditions: male, human (A549); green monkey (Vero E6)
Procedure: Cell viability was measured using the CellTiter-Glo luminescent cell viability assay (Promega). Separately A549 (human lung epithelial) cells and VeroE6 cells were seeded at 5×10^3 cells/well in 96-well plates and incubated overnight before treatment. Compounds were solubilized in DMSO and added to cells in an eight-point four-fold serial dilution (200 μM to 0.0122 μM). Cells were incubated in the presence of compounds for 24 hours before addition of the luminescence substrate and measurement of ATP activity according to manufacturer's instructions. The percentage of viable cells was calculated relative to cells treated with solvent alone (0.5% DMSO).

[6] = mouse liver microsomes, NADPH, 37° C., read-out: Mouse Microsomes Half-life
[7] = human liver microsomes, NADPH, 37° C., read-out: Human Microsomes Half-life

Compound	half-life at 1 μM ([1]; mouse, microsomes)	half-life at 1 μM ([2]; human, microsomes)	EC50 [3]	IC50 [4]	CC50 at 24 h [5]	half-life at 1 μM [1, 6]	half-life at 1 μM [2, 7]
COc1cccc2[nH]c(C(=O)N[C@@H](CC(C)C)C(=O)N[C@@H](C[C@@H]3CCCNC3=O)C(=O)CO)cc12 [AVI-8004, reference compound]	12 min	34 min					
COc1cccc2[nH]c(C(=O)N[C@@H](CC(C)C)C(=O)N[C@H](C#N)C[C@@H]3CCCNC3=O)cc12 [AVI-8059, reference compound]	10 min	16 min					
O=C(N[C@@H](CC1CC1)C(=O)N[C@@H](C[C@@H]1CCNC1=O)C(=O)CO)c1cc2cccc(Cl)c2[nH]1 [Compound 4, 7-chloro-N-[(2S)-3-cyclopropyl-1-({(2S)-4-hydroxy-3-oxo-1-[(3S)-2-oxopyrrolidin-3-yl]butan-2-yl}amino)-1-oxopropan-2-yl]-1H-indole-2-carboxamide]			< 5 µM	< 0.01 µM	> 200 µM	38 min	76 min
O=C(N[C@@H](CC1CC1)C(=O)N[C@@H](C[C@@H]1CCNC1=O)C(=O)CO)c1cc2cc(F)cc(F)c2[nH]1 [Compound 3, N-[(2S)-3-cyclopropyl-1-({(2S)-4-hydroxy-3-oxo-1-[(3S)-2-oxopyrrolidin-3-yl]butan-2-yl}amino)-1-oxopropan-2-yl]-5,7-difluoro-1H-indole-2-carboxamide]			< 5 µM	< 0.01 µM	> 200 µM	124 min	> 145 min
O=C(N[C@@H](CC1CC1)C(=O)N[C@@H](C[C@@H]1CCCNC1=O)C(=O)CO)c1cc2cccc(F)c2[nH]1 [Compound 9, N-[(2S)-3-cyclopropyl-1-({(2S)-4-hydroxy-3-oxo-1-[(3S)-2-oxopiperidin-3-yl]butan-2-yl}amino)-1-oxopropan-2-yl]-7-fluoro-1H-indole-2-carboxamide]			< 5 µM	< 0.01 µM	> 200 µM	91 min	74 min
O=C(N[C@@H](CC1CC1)C(=O)N[C@@H](C[C@@H]1CCCNC1=O)C(=O)CO)c1cc2cccc(Cl)c2[nH]1 [Compound 2, 7-chloro-N-[(2S)-3-cyclopropyl-1-({(2S)-4-hydroxy-3-oxo-1-[(3S)-2-oxopiperidin-3-yl]butan-2-yl}amino)-1-oxopropan-2-yl]-1H-indole-2-carboxamide]			< 5 µM	< 0.05 µM	> 200 µM	15 min	26 min
O=C(N[C@@H](CC1CC1)C(=O)N[C@@H](C[C@@H]1CCCNC1=O)C(=O)CO)c1cc2cc(F)cc(F)c2[nH]1 [Compound 1, N-[(2S)-3-cyclopropyl-1-({(2S)-4-hydroxy-3-oxo-1-[(3S)-2-oxopiperidin-3-yl]butan-2-yl}amino)-1-oxopropan-2-yl]-5,7-difluoro-1H-indole-2-carboxamide]			< 10 µM	< 0.05 µM	> 200 µM	57 min	46 min
O=C(N[C@@H](CC1CC1)C(=O)N[C@@H](C[C@@H]1CCNC1=O)C(=O)CO)c1cc2cccc(F)c2[nH]1 [Compound 5, N-[(2S)-3-cyclopropyl-1-({(2S)-4-hydroxy-3-oxo-1-[(3S)-2-oxopyrrolidin-3-yl]butan-2-yl}amino)-1-oxopropan-2-yl]-7-fluoro-1H-indole-2-carboxamide]			5 to 10 µM	< 0.05 µM	> 200 µM	124 min	> 145 min
CC(C)[C@H](N)C(=O)OCC(=O)[C@H](C[C@@H]1CCCNC1=O)NC(=O)[C@H](CC1CC1)NC(=O)c1cc2cc(F)cc(F)c2[nH]1.Cl [Compound 17, (3S)-3-{[3-cyclopropyl-N-(5,7-difluoro-1H-indole-2-carbonyl)-L-alanyl]amino}-2-oxo-4-[(3S)-2-oxopiperidin-3-yl]butyl L-valinate hydrochloride Salt]			< 5 µM	< 0.05 µM	> 200 µM	6 min	6 min
N#C[C@H](C[C@@H]1CCCNC1=O)NC(=O)[C@H](CC1CC1)NC(=O)c1cc2cccc(Cl)c2[nH]1 [PBI-0451, reference compound]	12 min	11 min					
CC(C)(C)[C@H](NC(=O)C(F)(F)F)C(=O)N1C[C@H]2[C@@H]([C@H]1C(=O)N[C@H](C#N)C[C@@H]1CCNC1=O)C2(C)C [nirmatrelvir, reference compound]	15 min	40 min					
